# Test results as given in PMC10746543, “Design principles for cyclin K molecular glue degraders” (Nature Chemical Biology, 2023).
# Values joined by “and” are separate entries in the source; they are usually repeats but may differ in a detail not shown here. Equal values may be shown once.
# How the values were obtained:
# CDK12–cyclin K and DDB1 = target: T1, CDK12–cyclin K and DDB1 (Homo sapiens, UniProt Q16531+Q9NYV4, K965R); experiment: TR-FRET Kd determination, quadratic fit, 50 nM or 10 nM CDK12–cyclin K; assay type: binding
# T1 construct: His6–CDK12 (a.a. 713–1,052); full-length or beta-propeller B domain deletion (ΔBPB: a.a. 396–705 deleted) constructs of His6–DDB1ΔBPB, StrepII–Avi–DDB1, or His6–Spy–DDB1; made in house; host or cells: Trichoplusia ni High Five insect cells (baculovirus)
# Text: Equation (2) is a quadratic binding equation used for Kd determination,where Top and Bottom refer to the curve plateaus. […]
# CDK12–cyclin K = CDK12–cyclin K (Homo sapiens, UniProt Q9NYV4); experiment: Lanthascreen kinase binding assay, CDK12; settings: for IC50: Supplementary Table 2, read-out: Lanthascreen IC50 [nM] CDK12; for Lanthascreen raw signal, sheet CDK12: duplicates
# Description: Lanthascreen experiments were performed using commercially available reagents (Thermo Fisher) and according to the manufacturer’s instructions.
# [1] = 10 nM CDK12-cyclin K + 100 nM DDB1, n = 1
# CDK12–cyclin K, sequence (Q9NYV4 713-1052): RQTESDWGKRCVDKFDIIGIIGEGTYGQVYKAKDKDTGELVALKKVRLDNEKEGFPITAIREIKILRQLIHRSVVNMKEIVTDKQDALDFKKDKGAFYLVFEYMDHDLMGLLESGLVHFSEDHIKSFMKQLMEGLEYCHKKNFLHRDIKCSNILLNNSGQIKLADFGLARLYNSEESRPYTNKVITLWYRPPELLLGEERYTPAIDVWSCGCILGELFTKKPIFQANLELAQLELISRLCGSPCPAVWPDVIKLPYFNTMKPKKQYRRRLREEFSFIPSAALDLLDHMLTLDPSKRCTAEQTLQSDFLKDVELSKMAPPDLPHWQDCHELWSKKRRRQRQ
# CDK12–cyclin K, sequence (O75909 1-267 partner limits assumed): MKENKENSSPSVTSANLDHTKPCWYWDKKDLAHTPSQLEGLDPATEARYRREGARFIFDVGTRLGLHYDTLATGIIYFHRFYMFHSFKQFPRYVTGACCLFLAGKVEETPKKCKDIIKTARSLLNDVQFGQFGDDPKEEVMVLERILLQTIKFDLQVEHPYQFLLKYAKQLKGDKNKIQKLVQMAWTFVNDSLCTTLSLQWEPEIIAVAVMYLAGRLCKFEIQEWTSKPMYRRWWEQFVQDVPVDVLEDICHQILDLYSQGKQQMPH
# T1 sequence (Q9NYV4 713-1052 K965R): as the sequence (Q9NYV4 713-1052) above, with K253R counted along it
# T1 sequence (O75909 1-267 partner): as the sequence (O75909 1-267 partner limits assumed) above
# T1 sequence (Q16531 whole entry): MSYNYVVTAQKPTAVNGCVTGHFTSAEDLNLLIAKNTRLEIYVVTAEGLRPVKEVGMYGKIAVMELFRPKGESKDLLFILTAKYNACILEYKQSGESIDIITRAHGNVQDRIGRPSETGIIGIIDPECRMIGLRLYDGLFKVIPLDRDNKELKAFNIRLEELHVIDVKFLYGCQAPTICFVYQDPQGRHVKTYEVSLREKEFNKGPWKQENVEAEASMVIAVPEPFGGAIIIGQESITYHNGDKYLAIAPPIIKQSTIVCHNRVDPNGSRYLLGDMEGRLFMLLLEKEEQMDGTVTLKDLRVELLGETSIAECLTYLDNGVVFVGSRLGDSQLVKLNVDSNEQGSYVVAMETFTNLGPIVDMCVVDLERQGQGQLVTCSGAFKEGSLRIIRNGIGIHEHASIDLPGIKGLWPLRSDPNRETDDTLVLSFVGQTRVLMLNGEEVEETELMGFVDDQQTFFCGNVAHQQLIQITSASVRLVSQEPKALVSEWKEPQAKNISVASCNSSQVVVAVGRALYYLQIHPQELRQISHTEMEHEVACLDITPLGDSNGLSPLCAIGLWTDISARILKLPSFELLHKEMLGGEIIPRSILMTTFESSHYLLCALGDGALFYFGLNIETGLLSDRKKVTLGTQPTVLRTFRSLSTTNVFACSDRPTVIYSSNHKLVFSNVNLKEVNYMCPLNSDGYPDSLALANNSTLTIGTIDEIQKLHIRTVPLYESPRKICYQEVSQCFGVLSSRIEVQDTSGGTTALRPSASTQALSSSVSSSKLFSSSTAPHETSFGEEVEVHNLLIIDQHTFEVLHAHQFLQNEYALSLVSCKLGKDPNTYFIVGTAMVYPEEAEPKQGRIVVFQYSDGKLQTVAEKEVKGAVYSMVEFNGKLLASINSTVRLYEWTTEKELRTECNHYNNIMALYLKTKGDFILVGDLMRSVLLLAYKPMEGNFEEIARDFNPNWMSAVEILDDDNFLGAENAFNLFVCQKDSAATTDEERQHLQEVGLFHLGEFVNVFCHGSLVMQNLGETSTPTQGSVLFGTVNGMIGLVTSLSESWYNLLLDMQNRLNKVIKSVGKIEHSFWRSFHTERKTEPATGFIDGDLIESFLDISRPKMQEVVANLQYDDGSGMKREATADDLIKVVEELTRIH
compound,measurement,setting,value
"Cc1cc2nc(CNc3nc(N4CCN(C)CC4)nc4c(Br)cnn34)[nH]c2cc1C [DS73, reference compound]",Kd,CDK12–cyclin K and DDB1; [1],0.0002 ± 0.0003 µM
same,TR-FRET Kd*,CDK12–cyclin K and DDB1; [1],subnanomolar range
same,TR-FRET signal,"CDK12–cyclin K and DDB1; 10 nM CDK12-cyclin K, compound 0.468 nM",0.1115
same,TR-FRET signal,"CDK12–cyclin K and DDB1; 10 nM CDK12-cyclin K, compound 2.16 nM",0.172
same,TR-FRET signal,"CDK12–cyclin K and DDB1; 10 nM CDK12-cyclin K, compound 3.6 nM",0.3284
same,TR-FRET signal,"CDK12–cyclin K and DDB1; 10 nM CDK12-cyclin K, compound 7.92 nM",0.4288
same,TR-FRET signal,"CDK12–cyclin K and DDB1; 10 nM CDK12-cyclin K, compound 15.84 nM",0.4992
same,TR-FRET signal,"CDK12–cyclin K and DDB1; 10 nM CDK12-cyclin K, compound 30.96 nM",0.5275
same,TR-FRET signal,"CDK12–cyclin K and DDB1; 10 nM CDK12-cyclin K, compound 62.6399 nM",0.5247
same,TR-FRET signal,"CDK12–cyclin K and DDB1; 10 nM CDK12-cyclin K, compound 125.279 nM",0.5329
same,TR-FRET signal,"CDK12–cyclin K and DDB1; 10 nM CDK12-cyclin K, compound 244.8 nM",0.5439
same,TR-FRET signal,"CDK12–cyclin K and DDB1; 10 nM CDK12-cyclin K, compound 993.6 nM",0.5387
same,TR-FRET signal,"CDK12–cyclin K and DDB1; 10 nM CDK12-cyclin K, compound 2001.6 nM",0.5235
same,Kd,"CDK12–cyclin K and DDB1; 50 nM CDK12-cyclin K + 100 nM DDB1, n = 1",0.002 ± 0.001 µM
same,TR-FRET signal,"CDK12–cyclin K and DDB1; 50 nM CDK12-cyclin K, compound 0.468 nM",0.2245
same,TR-FRET signal,"CDK12–cyclin K and DDB1; 50 nM CDK12-cyclin K, compound 2.16 nM",0.505
same,TR-FRET signal,"CDK12–cyclin K and DDB1; 50 nM CDK12-cyclin K, compound 3.6 nM",0.4237
same,TR-FRET signal,"CDK12–cyclin K and DDB1; 50 nM CDK12-cyclin K, compound 7.92 nM",0.5318
same,TR-FRET signal,"CDK12–cyclin K and DDB1; 50 nM CDK12-cyclin K, compound 15.84 nM",0.9093
same,TR-FRET signal,"CDK12–cyclin K and DDB1; 50 nM CDK12-cyclin K, compound 30.96 nM",1.797
same,TR-FRET signal,"CDK12–cyclin K and DDB1; 50 nM CDK12-cyclin K, compound 62.6399 nM",2.967
same,TR-FRET signal,"CDK12–cyclin K and DDB1; 50 nM CDK12-cyclin K, compound 125.279 nM",3.159
same,TR-FRET signal,"CDK12–cyclin K and DDB1; 50 nM CDK12-cyclin K, compound 244.8 nM",3.183
same,TR-FRET signal,"CDK12–cyclin K and DDB1; 50 nM CDK12-cyclin K, compound 993.6 nM",3.081
same,TR-FRET signal,"CDK12–cyclin K and DDB1; 50 nM CDK12-cyclin K, compound 2001.6 nM",3.197
same,IC50,CDK12–cyclin K,25 nM
same,"Lanthascreen raw signal, sheet CDK12","CDK12–cyclin K; compound 1.02544 nM, series r1",0.01046 and 0.009798
same,"Lanthascreen raw signal, sheet CDK12","CDK12–cyclin K; compound 3.15521 nM, series r1",0.009054 and 0.008698
same,"Lanthascreen raw signal, sheet CDK12","CDK12–cyclin K; compound 9.46563 nM, series r1",0.00642 and 0.008208
same,"Lanthascreen raw signal, sheet CDK12","CDK12–cyclin K; compound 31.5521 nM, series r1",0.007402 and 0.006928
same,"Lanthascreen raw signal, sheet CDK12","CDK12–cyclin K; compound 99.3891 nM, series r1",0.007817 and 0.006924
same,"Lanthascreen raw signal, sheet CDK12","CDK12–cyclin K; compound 315.521 nM, series r1",0.006025 and 0.005353
same,"Lanthascreen raw signal, sheet CDK12","CDK12–cyclin K; compound 3155.21 nM, series r1",0.005515 and 0.005262
same,"Lanthascreen raw signal, sheet CDK12","CDK12–cyclin K; compound 10002 nM, series r1",0.006527 and 0.0053
Cc1ccc(C(=O)N2CSCC2C(=O)Nc2ncc(C)s2)o1 (stereo not shown) [dCeMM4],IC50,CDK12–cyclin K,6550 nM
same,"Lanthascreen raw signal, sheet CDK12","CDK12–cyclin K; compound 0.038147 nM, series r13",0.01232 and 0.01243
same,"Lanthascreen raw signal, sheet CDK12","CDK12–cyclin K; compound 0.038147 nM, series r49",0.008613 and 0.007971
same,"Lanthascreen raw signal, sheet CDK12","CDK12–cyclin K; compound 0.152588 nM, series r13",0.01076 and 0.01116
same,"Lanthascreen raw signal, sheet CDK12","CDK12–cyclin K; compound 0.152588 nM, series r49",0.01012 and 0.009882
same,"Lanthascreen raw signal, sheet CDK12","CDK12–cyclin K; compound 0.610352 nM, series r13",0.0114 and 0.01052
same,"Lanthascreen raw signal, sheet CDK12","CDK12–cyclin K; compound 0.610352 nM, series r49",0.009497 and 0.01011
same,"Lanthascreen raw signal, sheet CDK12","CDK12–cyclin K; compound 1.02544 nM, series r1",0.009042 and 0.01099
same,"Lanthascreen raw signal, sheet CDK12","CDK12–cyclin K; compound 3.15521 nM, series r1",0.01068 and 0.009679
same,"Lanthascreen raw signal, sheet CDK12","CDK12–cyclin K; compound 9.46563 nM, series r1",0.009286 and 0.009664
same,"Lanthascreen raw signal, sheet CDK12","CDK12–cyclin K; compound 9.76563 nM, series r13",0.01092 and 0.01022
same,"Lanthascreen raw signal, sheet CDK12","CDK12–cyclin K; compound 9.76563 nM, series r49",0.01048 and 0.01041
same,"Lanthascreen raw signal, sheet CDK12","CDK12–cyclin K; compound 31.5521 nM, series r1",0.009025 and 0.009021
same,"Lanthascreen raw signal, sheet CDK12","CDK12–cyclin K; compound 39.0625 nM, series r13",0.01118 and 0.01016
same,"Lanthascreen raw signal, sheet CDK12","CDK12–cyclin K; compound 39.0625 nM, series r49",0.009518 and 0.009698
same,"Lanthascreen raw signal, sheet CDK12","CDK12–cyclin K; compound 99.3891 nM, series r1",0.008619 and 0.008828
same,"Lanthascreen raw signal, sheet CDK12","CDK12–cyclin K; compound 156.25 nM, series r13",0.01038 and 0.009956
same,"Lanthascreen raw signal, sheet CDK12","CDK12–cyclin K; compound 156.25 nM, series r49",0.009802 and 0.01107
same,"Lanthascreen raw signal, sheet CDK12","CDK12–cyclin K; compound 315.521 nM, series r1",0.009446 and 0.008194
same,"Lanthascreen raw signal, sheet CDK12","CDK12–cyclin K; compound 625 nM, series r13",0.01123 and 0.01103
same,"Lanthascreen raw signal, sheet CDK12","CDK12–cyclin K; compound 625 nM, series r49",0.008992 and 0.00907
same,"Lanthascreen raw signal, sheet CDK12","CDK12–cyclin K; compound 2500 nM, series r13",0.01034 and 0.009721
same,"Lanthascreen raw signal, sheet CDK12","CDK12–cyclin K; compound 2500 nM, series r49",0.009117 and 0.008384
same,"Lanthascreen raw signal, sheet CDK12","CDK12–cyclin K; compound 3155.21 nM, series r1",0.008559 and 0.007567
same,"Lanthascreen raw signal, sheet CDK12","CDK12–cyclin K; compound 10000 nM, series r13",0.008264
same,"Lanthascreen raw signal, sheet CDK12","CDK12–cyclin K; compound 10000 nM, series r49",0.007507 and 0.007835
same,"Lanthascreen raw signal, sheet CDK12","CDK12–cyclin K; compound 10002 nM, series r1",0.008529 and 0.007315
